Data from ChEMBL document CHEMBL1201862, “PubChem BioAssay data set” (2004).
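The compound was tested at five concentrations on cells cultured in 96-well plates, with a 48-hour exposure period. At the GI50, growth is halved.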 The source made the active and inactive calls. Rule as the data show it: active = GI50 up to about 1.1 µM and inactive = higher.

What was measured:
Assay in all cases: NCI-60 cell line screen, 48 h
MDA-MB-231 = tested on: MDA-MB-231
SK-MEL-5 = tested on: SK-MEL-5
MOLT-4 = tested on: MOLT-4
A549 = tested on: A549
SK-MEL-28 = tested on: SK-MEL-28
786-0 = tested on: 786-0
SF-295 = tested on: SF-295
COLO 205 = tested on: COLO 205
NCI-H23 = tested on: NCI-H23
SW-620 = tested on: SW-620
SR = tested on: SR
SNB-19 = tested on: SNB-19
HCT-116 = tested on: HCT-116
UACC-62 = tested on: UACC-62
LOX IMVI = tested on: LOX IMVI
SK-OV-3 = tested on: SK-OV-3
SF-539 = tested on: SF-539
RXF 393 = tested on: RXF 393
RPMI-8226 = tested on: RPMI-8226
HCT-15 = tested on: HCT-15

Compound	GI50 (MDA-MB-231)	GI50 (SK-MEL-5)	GI50 (MOLT-4)	GI50 (A549)	GI50 (SK-MEL-28)	GI50 (786-0)	GI50 (SF-295)	GI50 (COLO 205)	GI50 (NCI-H23)	GI50 (SW-620)	GI50 (SR)	GI50 (SNB-19)	GI50 (HCT-116)	GI50 (UACC-62)	GI50 (LOX IMVI)	GI50 (SK-OV-3)	GI50 (SF-539)	GI50 (RXF 393)	GI50 (RPMI-8226)	GI50 (HCT-15)
CCCCCCCCCCCCC1NC(=N)NC2(CCCO2)C1C(=O)OC (stereo not given)	4.12 µM (inactive)	5.47 µM (inactive)	1.75 µM (inactive)	13.1 µM (inactive)	5.52 µM (inactive)	4.24 µM (inactive)	9.73 µM (inactive)	3.03 µM (inactive)	4.39 µM (inactive)	1.97 µM (inactive)	2.33 µM (inactive)	2.76 µM (inactive)	2.47 µM (inactive)	3.89 µM (inactive)	1.69 µM (inactive)	10 µM (inactive)	4.9 µM (inactive)	3 µM (inactive)	2.61 µM (inactive)	16.7 µM
CN(C)CCNC(=O)c1cccc2nc3c4ccccc4c4ccccc4c3nc12	1.82 µM (inactive)	3.37 µM (inactive)	0.748 µM (active)	2.74 µM (inactive)	1.79 µM (inactive)	2.28 µM (inactive)	2.16 µM (inactive)	3.89 µM (inactive)	1.87 µM (inactive)	1.58 µM (inactive)	0.773 µM (active)	3.48 µM (inactive)	1.53 µM (inactive)	2.35 µM (inactive)	1.64 µM (inactive)	6.52 µM (inactive)	1.72 µM (inactive)	2.06 µM (inactive)	1.56 µM (inactive)	1.69 µM
Fc1cc2nc3n(c2cc1F)C(c1c(F)cccc1F)SC3 (stereo not given)	84.5 µM (inactive)	17.3 µM (inactive)	27.1 µM (inactive)	37.1 µM (inactive)	43 µM (inactive)	24.3 µM (inactive)	37.2 µM (inactive)	31.3 µM (inactive)	43.9 µM (inactive)	45 µM (inactive)	30.1 µM (inactive)	> 100 µM (inactive)	21.8 µM (inactive)	38.8 µM (inactive)	38.8 µM (inactive)	42.7 µM (inactive)	39.4 µM (inactive)	26.9 µM (inactive)	34.5 µM (inactive)	44 µM
O=C1N/C(=N\N=C\c2ccccc2)C(c2ccccc2)O1 (stereo not given)	88.5 µM (inactive)	66.8 µM (inactive)	25.5 µM (inactive)	45.3 µM (inactive)	> 100 µM (inactive)	47.9 µM (inactive)	42.5 µM (inactive)	40.9 µM (inactive)	> 100 µM (inactive)	59.4 µM (inactive)	23.6 µM (inactive)	> 100 µM (inactive)	37.3 µM (inactive)	75.7 µM (inactive)	42.8 µM (inactive)	> 100 µM (inactive)	> 100 µM (inactive)	80 µM (inactive)	34.4 µM (inactive)	19.8 µM
O=[N+]([O-])c1ccc2[nH]nc(OCc3ccccc3Cl)c2c1	> 100 µM (inactive)	26.5 µM (inactive)	63.5 µM (inactive)	39.4 µM (inactive)	> 100 µM (inactive)	25 µM (inactive)	42.6 µM (inactive)	> 100 µM (inactive)	31.9 µM (inactive)	> 10 µM (inactive)	> 100 µM (inactive)	34.7 µM (inactive)	27.4 µM (inactive)	29.2 µM (inactive)	28.6 µM (inactive)	13.8 µM (inactive)	22.4 µM (inactive)	18.2 µM (inactive)	> 100 µM (inactive)	85.5 µM
CC1(C)[C@@H]2C[C@H]1C(Cc1ccc(C[C@H]3c4cc(-c5ccccn5)ncc4[C@H]4C[C@@H]3C4(C)C)cc1)c1cc(-c3ccccn3)ncc12 (stereo not given in full)	5.35 µM (inactive)	0.619 µM (active)	0.431 µM (active)	0.807 µM (active)	3.54 µM (inactive)	1.41 µM (inactive)	1.22 µM (inactive)	1.41 µM (inactive)	2.68 µM (inactive)	3.46 µM (inactive)	0.561 µM (active)	3.32 µM (inactive)	0.75 µM (active)	0.67 µM (active)	0.843 µM (active)	7.83 µM (inactive)	1.22 µM (inactive)	3.58 µM (inactive)	3.03 µM (inactive)	2.9 µM
C=C1C(=O)O[C@H]2C/C(C)=C/CC/C(C)=C/CC[C@@](C)(O)[C@@H](I)C[C@@H]12	12.8 µM (inactive)	11.8 µM (inactive)	2.37 µM (inactive)	11.2 µM (inactive)	13.6 µM (inactive)	3 µM (inactive)	18.4 µM (inactive)	9.44 µM (inactive)	0.0501 µM (active)	4.25 µM (inactive)	2.67 µM (inactive)	15 µM (inactive)	4.14 µM (inactive)	11.3 µM (inactive)	0.234 µM (active)	16 µM (inactive)	4 µM (inactive)	3.84 µM (inactive)	2.69 µM (inactive)	6.04 µM
CC(=O)C(C(c1ccccc1)N1CCOCC1)N1CCOCC1 (stereo not given)	> 100 µM (inactive)	> 100 µM (inactive)	> 100 µM (inactive)	> 100 µM (inactive)	> 100 µM (inactive)	> 100 µM (inactive)	> 100 µM (inactive)	> 100 µM (inactive)	> 100 µM (inactive)	> 100 µM (inactive)	83.9 µM (inactive)	> 100 µM (inactive)	> 100 µM (inactive)	> 100 µM (inactive)	> 100 µM (inactive)	> 100 µM (inactive)	> 100 µM (inactive)	> 100 µM (inactive)	> 100 µM (inactive)	> 100 µM
CC1(C)C(CBr)=[N+]([O-])C(C)(C)N1O	> 6.76 µM (inactive)	4.16 µM (inactive)	2.57 µM (inactive)	> 10 µM (inactive)	> 10 µM (inactive)	5.71 µM (inactive)	> 10 µM (inactive)	1.83 µM (inactive)	3.59 µM (inactive)	2.25 µM (inactive)	> 3.74 µM (inactive)	> 10 µM (inactive)	2.12 µM (inactive)	7.59 µM (inactive)	3.7 µM (inactive)	> 10 µM (inactive)	> 5.38 µM (inactive)	3.31 µM (inactive)	> 5.05 µM (inactive)	2.55 µM
O=C(c1ccccc1)C(Nc1ccc2ccccc2c1)c1ccccc1 (stereo not given)	28.8 µM (inactive)	16.9 µM (inactive)	8.41 µM (inactive)	33.3 µM (inactive)	49.7 µM (inactive)	36.7 µM (inactive)	24.7 µM (inactive)	17.6 µM (inactive)	24.4 µM (inactive)	27.7 µM (inactive)	7.89 µM (inactive)	34.7 µM (inactive)	15.7 µM (inactive)	18.2 µM (inactive)	35.3 µM (inactive)	40.7 µM (inactive)	54.2 µM (inactive)	> 43.9 µM (inactive)	11.1 µM (inactive)	29 µM
O=C1/C(=c2\s/c(=C\c3ccccc3)c(=O)n2-c2ccccc2)SC(=S)N1c1ccccc1	20.5 µM (inactive)	53.2 µM (inactive)	45.4 µM (inactive)	34.8 µM (inactive)	63.1 µM (inactive)	45.8 µM (inactive)	30.3 µM (inactive)	63.5 µM (inactive)	76.7 µM (inactive)	93.3 µM (inactive)	10.7 µM (inactive)	46.1 µM (inactive)	58.9 µM (inactive)	35.6 µM (inactive)	26.9 µM (inactive)	21.9 µM (inactive)	21.5 µM (inactive)	34 µM (inactive)	56.8 µM (inactive)	> 100 µM
CC(=O)/N=C1\N/C(=C\c2ccc(Cl)cc2)C(=O)N1/C=C1\C(=O)Oc2ccccc2C1=O	> 100 µM (inactive)	47.2 µM (inactive)	> 100 µM (inactive)	> 100 µM (inactive)	> 100 µM (inactive)	> 100 µM (inactive)	> 100 µM (inactive)	> 100 µM (inactive)	> 100 µM (inactive)	> 100 µM (inactive)	52.2 µM (inactive)	> 100 µM (inactive)	> 100 µM (inactive)	26.3 µM (inactive)	> 100 µM (inactive)	> 100 µM (inactive)	> 100 µM (inactive)	> 100 µM (inactive)	> 100 µM (inactive)	85.1 µM
CC(C)(NO)/C(=N\O)c1ccco1	> 100 µM (inactive)	> 100 µM (inactive)	20.1 µM (inactive)	> 100 µM (inactive)	> 100 µM (inactive)	> 100 µM (inactive)	> 100 µM (inactive)	> 100 µM (inactive)	> 100 µM (inactive)	> 100 µM (inactive)	> 10 µM (inactive)	> 100 µM (inactive)	> 100 µM (inactive)	> 100 µM (inactive)	> 100 µM (inactive)	> 100 µM (inactive)	> 100 µM (inactive)	> 100 µM (inactive)	> 100 µM (inactive)	> 100 µM
COc1cccc2c1C(=O)c1c(O)c3c(c(O)c1C2=O)C[C@@](O)(C(=O)CO)CC3OC1CC(N)C(OC2CCCCO2)C(C)O1 (stereo not given in full)	0.0802 µM (active)	0.299 µM (active)	0.0315 µM (active)	0.256 µM (active)	1.5 µM (inactive)	0.272 µM (active)	0.23 µM (active)	1.21 µM (inactive)	0.478 µM (active)	0.265 µM (active)	0.0314 µM (active)	0.437 µM (active)	0.324 µM (active)	0.918 µM (active)	0.356 µM (active)	0.807 µM (active)	0.267 µM (active)	1.48 µM (inactive)	0.33 µM (active)	1.61 µM
